Measured values taken from patent publication US6613351B1, “Compound capable of introducing at least one molecule into a cell” (Biotech Tools S.A., priority 1993, dated 2003).

Key:
K562 cells = assay: Transfection of K562 suspension cells with CAT plasmid, CAT assay; assay type: cell-based, human; conditions: 3 h incubation, medium with serum
Experimental: (§1) 5 μg of plasmid DNA and 11 μg (11 μl) of pure diC14-amidine suspension (for 25 μg (25 μl) of diC14-amidine/PE suspension (see example 2)) are separately diluted in a final volume of 50 μl with distilled water and sterilized. Both solutions are then mixed and incubated for 15 min at room temperature.
The suspension containing the complex (diC14-amidine-DNA or diC14-amidine/PE-DNA) is gently mixed with 10 ml of medium. The mixture thus formed constitutes the “transfection medium”. Aliquots of 10^6 cells are centrifuged and the pellets are resuspended in the transfection medium. The cell suspensions are distributed into 100 mm culture dishes. The suspensions are incubated for the desired period; after incubation, the cells are centrifuged and resuspended in 10 ml of fresh medium and then cultured normally.
(§2) CHO (Chinese Hamster Ovary) cells are cultured in F12 medium supplemented with 1% glutamine and 1% penicillin/streptomycin and containing 10% FCS (Fetal Calf Serum, K562 (human myeloid) cells are cultured in RFMI medium supplemented with antibiotics and non-essential amino acids and containing 10% FCS (0.5-1×10^6 cells/ml). Both cell lines are cultured under a CO2 atmosphere (37° C., 5% CO2).
(§3) The plasmid used is derived from the commercial plasmid pCMV5 into which the bacterial replication origin S1, the ampicillin resistance gene and the CAT gene of bacterial origin have been inserted. It is approximately 5000 base pairs in size and is stored at a concentration of 1 mg/ml.
[…] The CHO cells (adherent) are plated in the 6-well culture dishes the day before the experiment in an amount of 10^6 cells/well; while the K562 cells (in suspension) are used in an amount of 10^6 cells per experiment.
(§4) The incubation was carried out for 3 h for the two cell lines. The transfection medium is the normal culture medium (with serum) with which vesicle vector (pure diC14-amidine or diC14-amidine/PE/DNA) has been mixed under the conditions described in the general procedure.
After incubation, the cells are treated as described above; the CHO cells are transferred after 6 h into 100 mm culture dishes. The two cell lines continue to grow for 36 h before the CAT assay performed as described by Gorman et al., B.H. (1982), Mol. Cell. Biol. 2, 1044-1051; in brief, the cell lysates are incubated at 37° C. with [^14C]chloramphenicol and acetyl CoA for 2 h and extracted with ethyl acetate. […] The acetylation of chloramphenicol is determined by autoradiography on the chromatograms and counting of the spots on the plate.
(§5) Table 5 below gives the comparison of the transfection efficiency of the CAT gene for diC14 and the product DOTAP® marketed by Boehringer Mannheim, expressed as percentage of acetylated chloramphenicol in the cellular extract, under identical experimental conditions.

CHO cells = assay: Transfection of adherent CHO cells with CAT plasmid, CAT assay; assay type: cell-based, Chinese Hamster; conditions: for transfection efficiency of the CAT gene, percentage of acetylated chloramphenicol in the cellular extract: adherent cells (CHO), 3 h incubation, medium with serum
Experimental: as §1
The cells are cultured in 6-well culture dishes until they are 80-90% confluent.
The suspension containing the complex (diC14-amidine-DNA or diC14-amidine/PE-DNA) is gently mixed with 2 ml of culture medium. The culture medium used for the transfection operation is identical to the usual culture medium for the cells to be transformed. The medium is prepared with 2.5% or without serum.
The mixture thus formed constitutes the “transfection medium”. The cells (about 10^6) are washed with the culture medium and the transfection medium is added. The medium is incubated for the desired period. This period may depend on the cell line to be transfected but an incubation time of 2-3 h is generally used. After incubation, the transfection medium is replaced with fresh medium; 6 hours later, the cells can be […] into 100 mm culture dishes.
as §2, §3
The general procedure described above was followed; 5 μg (5 μl) of plasmid DNA and 11 μg (11 μl) of pure diC14-amidine suspension (or 25 μg (25 μl) of diC14-amidine/PE suspension) prepared as described above are used. The CHO cells (adherent) are plated in the 6-well culture dishes the day before the experiment in an amount of 10^6 cells/well; while the K562 cells (in suspension) are used in an amount of 10^6 cells per experiment.
as §4
After incubation, the cells are treated as described above; the CHO cells are transferred after 6 h into 100 mm culture dishes. The two cell lines continue to grow for 36 h before the CAT assay performed as described by Gorman et al., B.H. (1982), Mol. Cell. Biol. 2, 1044-1051; in brief, the cell lysates are incubated at 37° C. with [^14C]chloramphenicol and acetyl CoA for 2 h and extracted with ethyl acetate. The organic phase is eluted by TLC (thin-layer chromatography) with chloroform/methanol 95:5. The acetylation of chloramphenicol is determined by autoradiography on the chromatograms and counting of the spots on the plate.
as §5

[1] = vector composition 2 + 5 (μg) plasmid DNA + cationic vesicles
[2] = vector composition 5 + 10 (μg) plasmid DNA + cationic vesicles

Structure (SMILES) | transfection efficiency of the CAT gene, percentage of acetylated chloramphenicol in the cellular extract (K562 cells; [1]) | transfection efficiency of the CAT gene, percentage of acetylated chloramphenicol in the cellular extract (K562 cells; [2]) | transfection efficiency of the CAT gene, percentage of acetylated chloramphenicol in the cellular extract (CHO cells; [1]) | transfection efficiency of the CAT gene, percentage of acetylated chloramphenicol in the cellular extract (CHO cells; [2]) | quantities needed for transfection efficiencies relative to available commercial products (CHO cells; compared with DOTAP (Boehringer Mannheim) and Lipofectin (Gibco BRL), CHO and K562 cells)
CCCCCCCC/C=C\CCCCCCCC(=O)OCC(C[N+](C)(C)C)OC(=O)CCCCCCC/C=C\CCCCCCCC.COS(=O)(=O)[O-] (stereo not drawn) [DOTAP, N-(2,3-dioleoyloxy)propyl-N,N,N-trimethylammonium methyl sulfate, reference compound] | 29% | 36% | 32% | 40% | 
CCCCCCCCCCCCCCN=C(CCNCCCCCCCCCCCCCC)NC(C)(C)C [diC14-t-but, 3-tetradecylamino-N-tert-butyl-N′-tetradecylpropionamidine] | 60% | 68% | 63% | 65% | two to three times lower
